Columns and labels:
Assay type in all cases: cell-based
[1] = test system: Wnt activity (Wnt-responsive human Sp5 promoter, TCF/LEF binding sites) in SW480 colon carcinoma cells; test: Wnt activity screening assay: Sp5-Luc luciferase reporter gene in SW480 cells; settings: for EC50: 10-point dose-response from 10 μM, incubated overnight; for inhibition at 10 µM: given for EC50 of >10 μM, read-out: percent inhibition at 10 μM
Procedure, shortened: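 First, hygromycin-selected SW480 Sp5-Luc reporter cells are seeded in medium with 1% fetal bovine serum and exposed overnight to compound (up to 10 μM, 0.1% DMSO). Next, luciferase signal is read by luminescence. Finally, EC50 is fitted, or percent inhibition at 10 μM is reported above 10 μM.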

SW480 colon cancer cells = test: Cell viability assay (CellTiter-Blue), four days; settings: Homo sapiens, 96 h; for inhibition at 10 µM: read-out: percent inhibition at 10 μM (given for EC50 of >10 μM); for EC50: CellTiter-Blue cell viability
Procedure, shortened: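 SW480 colon cancer cells (~2×10^3/well) exposed to 8-point 1:3 dilutions from 10 μM to 0.0045 μM for four days at 37 °C/5% CO2. Viability read by resazurin (CellTiter-Blue) fluorescence after ~3 h, Ex 560/Em 590 nm. EC50 from non-linear regression; percent inhibition at 10 μM given when EC50 >10 μM.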

[2] = test system: Primary human fibroblasts derived from IPF patients (LL29 cells) treated with TGF-β1; test: Inhibition of the fibrotic process: αSMA staining in TGF-β1 treated fibroblasts; settings: Fibroblast, 96 h, LL29 fibroblasts treated with TGF-β1, 4 days; for inhibition at 10 µM: read-out: percent inhibition in brackets beside EC50 >10 μM
Procedure, shortened: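 LL29 IPF-patient lung fibroblasts in 1% FBS F12 were given compounds (11-point, 10 μM to […], 0.1% DMSO) plus TGF-β1 20 ng/mL for 4 days at 37 °C. αSMA-positive fraction of live (SYTOX-negative) cells was imaged and normalized to TGF-β1/DMSO wells. EC50 by non-linear regression, or % inhibition at 10 μM if >10 μM.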

Row | EC50 [1] [µM] | EC50 (SW480 colon cancer cells) [µM] | SMILES | inhibition at 10 µM [1] [%] | inhibition at 10 µM (SW480 colon cancer cells) [%] | EC50 [2] [µM] | inhibition at 10 µM [2] [%]
1 | > 10 | > 10 | CN1CCN(c2nccc3[nH]c(-c4n[nH]c5ccc(-c6cncc(N)c6)nc45)nc23)CC1 [Compound 227, 5-(3-(4-(4-Methylpiperazin-1-yl)-1H-imidazo[4,5-c]pyridin-2-yl)-1H-pyrazolo[4,3-b]pyridin-5-yl)pyridin-3-amine] | 15.3 | 0 | > 10 | 22.5
2 | > 10 | > 10 | COc1cccc(-c2nccc3[nH]c(-c4n[nH]c5ccc(-c6cncc(O)c6)nc45)nc23)c1 [Compound 1030, 5-(3-(4-(3-Methoxyphenyl)-1H-imidazo[4,5-c]pyridin-2-yl)-1H-pyrazolo [4,3-b]pyridin-5-yl)pyridin-3-ol] | 14.1 | 6 | 9.7 | 
3 | 0.206 | 0.638 | Cc1ccncc1-c1ccc2[nH]nc(-c3nc4c(-c5ccsc5)nccc4[nH]3)c2n1 [Compound 285, 5-(4-Methylpyridin-3-yl)-3-(4-(thiophen-3-yl)-1H-imidazo[4,5-c]pyridin-2-yl)-1H-pyrazolo[4,3-b]pyridine] |  |  | 0.493 | 
4 | > 10 | > 10 | Cn1cc(-c2ccc3[nH]nc(-c4nc5c(N6CCCCC6)nccc5[nH]4)c3n2)c(CO)n1 [Compound 1133, (1-Methyl-4-(3-(4-(piperidin-1-yl)-1H-imidazo[4,5-c]pyridin-2-yl)-1H-pyrazolo [4,3-b]pyridin-5-yl)-1H-pyrazol-3-yl)methanol] | 49.6 | 28.2 | 1.06 | 
5 | > 10 | > 10 | CCCCC(=O)Nc1cncc(-c2ccc3[nH]nc(-c4nc5c(-c6ccccn6)nccc5[nH]4)c3n2)c1 [Compound 159, N-(5-(3-(4-(Pyridin-2-yl)-1H-imidazo[4,5-c]pyridin-2-yl)-1H-pyrazolo[4,3-b]pyridin-5-yl)pyridin-3-yl)pentanamide] | 1.2 | 5.7 | 4.04 | 
6 | > 10 | 9.56 | Fc1ccc(-c2nccc3[nH]c(-c4n[nH]c5ccc(-c6cncc(CN7CCCC7)c6)nc45)nc23)cc1 [Compound 42, 3-(4-(4-Fluorophenyl)-1H-imidazo[4,5-c]pyridin-2-yl)-5-(5-(pyrrolidin-1-ylmethyl)pyridin-3-yl)-1H-pyrazolo[4,3-b]pyridine] | 28.2 |  | 2.87 | 
7 | 0.745 | 1.57 | COc1cncc(-c2ccc3[nH]nc(-c4nc5c(-c6ccoc6)nccc5[nH]4)c3n2)c1 [Compound 692, 3-(4-(Furan-3-yl)-1H-imidazo[4,5-c]pyridin-2-yl)-5-(5-methoxypyridin-3-yl)-1H-pyrazolo[4,3-b]pyridine] |  |  | 0.334 | 
8 | > 10 | > 10 | c1cc2[nH]c(-c3n[nH]c4ccc(C5CCNCC5)nc34)nc2c(-c2ccc3c(c2)OCO3)n1 [Compound 1108, 3-(4-(Benzo[d][1,3]dioxol-5-yl)-1H-imidazo[4,5-c]pyridin-2-yl)-5-(piperidin-4-yl)-1H-pyrazolo[4,3-b]pyridine] | 11 | 3.8 | > 10 | 43.7
9 | 1.04 | > 10 | Cc1ccc(-c2nccc3[nH]c(-c4n[nH]c5ccc(-c6cncc(OC7CCCCC7)c6)nc45)nc23)s1 [Compound 735, 5-(5-(Cyclohexyloxy)pyridin-3-yl)-3-(4-(5-methylthiophen-2-yl)-1H-imidazo[4,5-c]pyridin-2-yl)-1H-pyrazolo[4,3-b]pyridine] |  | 0 | 0.958 | 
10 | 3.47 | 0.684 | CCNCc1cncc(-c2ccc3[nH]nc(-c4nc5c(-c6ccoc6)nccc5[nH]4)c3n2)c1 [Compound 314, N-((5-(3-(4-(Furan-3-yl)-1H-imidazo[4,5-c]pyridin-2-yl)-1H-pyrazolo[4,3-b]pyridin-5-yl)pyridin-3-yl)methyl)ethanamine] |  |  | > 10 | 20.6
11 | 1.58 | 0.926 | Clc1ccc(-c2nccc3[nH]c(-c4n[nH]c5ccc(-c6cncc(CN7CCCC7)c6)nc45)nc23)s1 [Compound 1049, 3-(4-(5-Chlorothiophen-2-yl)-1H-imidazo[4,5-c]pyridin-2-yl)-5-(5-(pyrrolidin-1-ylmethyl)pyridin-3-yl)-1H-pyrazolo [4,3-b]pyridine] |  |  | 1.19 | 

Further lines, the molecule ahead of its results:

Row | SMILES | EC50 [1] [µM] | EC50 (SW480 colon cancer cells) [µM] | inhibition at 10 µM [1] [%] | inhibition at 10 µM (SW480 colon cancer cells) [%] | EC50 [2] [µM] | inhibition at 10 µM [2] [%]
12 | COc1cccc(-c2nccc3[nH]c(-c4n[nH]c5ccc(-c6cncc(OC7CCNCC7)c6)nc45)nc23)c1 [Compound 1025, 3-(4-(3-Methoxyphenyl)-1H-imidazo[4,5-c]pyridin-2-yl)-5-(5-(piperidin-4-yloxy)pyridin-3-yl)-1H-pyrazolo[4,3-b]pyridine] | > 10 | > 10 | 15.1 | 12.7 | 3.33 | 
13 | O=C(Nc1cncc(-c2ccc3[nH]nc(-c4nc5c(-c6ccc(F)cc6)nccc5[nH]4)c3n2)c1)C1CCC1 [Compound 49, N-(5-(3-(4-(4-Fluorophenyl)-1H-imidazo[4,5-c]pyridin-2-yl)-1H-pyrazolo [4,3-b]pyridin-5-yl)pyridin-3-yl)cyclobutanecarboxamide] | 4.08 | 9.29 |  |  | > 10 | 7.5
14 | CC(C)C(=O)Nc1cncc(-c2ccc3[nH]nc(-c4nc5c(-c6cccnc6)nccc5[nH]4)c3n2)c1 [Compound 93, N-(5-(3-(4-(Pyridin-3-yl)-1H-imidazo[4,5-c]pyridin-2-yl)-1H-pyrazolo[4,3-b]pyridin-5-yl)pyridin-3-yl)isobutyramide] | > 10 | > 10 | 25.1 | 5.9 | 2.01 | 
15 | c1cncc(-c2ccc3[nH]nc(-c4nc5cnccc5[nH]4)c3n2)c1 [Compound 256, 3-(1H-Imidazo[4,5-c]pyridin-2-yl)-5-(pyridin-3-yl)-1H-pyrazolo[4,3-b]pyridine] | > 10 | > 10 | 21.9 | 1.8 | > 10 | 0
16 | CCC(=O)Nc1cncc(-c2ccc3[nH]nc(-c4nc5c(-c6cccs6)nccc5[nH]4)c3n2)c1 [Compound 337, N-(5-(3-(4-(Thiophen-2-yl)-1H-imidazo[4,5-c]pyridin-2-yl)-1H-pyrazolo [4,3-b]pyridin-5-yl)pyridin-3-yl)propionamide] | > 10 | > 10 | 31.8 | 39.4 | 1.08 | 
17 | CCCCC(=O)Nc1cncc(-c2ccc3[nH]nc(-c4nc5c(-c6ccoc6)nccc5[nH]4)c3n2)c1 [Compound 327, N-(5-(3-(4-(Furan-3-yl)-1H-imidazo[4,5-c]pyridin-2-yl)-1H-pyrazolo[4,3-b]pyridin-5-yl)pyridin-3-yl)pentanamide] | 2.03 | > 10 |  | 10.1 | > 10 | 0
18 | CC(C)Nc1cncc(-c2ccc3[nH]nc(-c4nc5c(-c6cccnc6)nccc5[nH]4)c3n2)c1 [Compound 96, N-Isopropyl-5-(3-(4-(pyridin-3-yl)-1H-imidazo[4,5-c]pyridin-2-yl)-1H-pyrazolo[4,3-b]pyridin-5-yl)pyridin-3-amine] | 0.994 | 1.98 |  |  | 1.25 | 
19 | O=C(Cc1ccccc1)Nc1cncc(-c2ccc3[nH]nc(-c4nc5c(-c6ccncc6)nccc5[nH]4)c3n2)c1 [Compound 122, 2-phenyl-N-(5-(3-(4-(pyridin-4-yl)-1H-imidazo[4,5-c]pyridin-2-yl)-1H-pyrazolo[4,3-b]pyridin-5-yl)pyridin-3-yl)acetamide] | > 10 | > 10 | 1 | 3.2 | > 10 | 0
20 | CC(C)(C)CC(=O)Nc1cncc(-c2ccc3[nH]nc(-c4nc5c(-c6ccccc6F)nccc5[nH]4)c3n2)c1 [Compound 72, N-(5-(3-(4-(2-fluorophenyl)-1H-imidazo[4,5-c]pyridin-2-yl)-1H-pyrazolo [4,3-b]pyridin-5-yl)pyridin-3-yl)-3,3-dimethylbutanamide] | > 10 | > 10 | 8.1 | 4.1 | > 10 | 0
21 | CC(C)C(=O)Nc1cncc(-c2ccc3[nH]nc(-c4nc5c(-c6ccccc6F)nccc5[nH]4)c3n2)c1 [Compound 65, N-(5-(3-(4-(2-fluorophenyl)-1H-imidazo[4,5-c]pyridin-2-yl)-1H-pyrazolo [4,3-b]pyridin-5-yl)pyridin-3-yl)isobutyramide] | > 10 | > 10 | 2.7 | 8.7 | > 10 | 4

— patent US10195185B2, “3-(1H-imidazo[4,5-C]pyridin-2-yl)-1H-pyrazolo[4,3-B]pyridines and therapeutic uses thereof” (Samumed, LLC, priority 2015, dated 2019)
